Assays:
[1] = tested on: amyloid plaques in the brain; assay: Ex vivo autoradiography using Alzheimer's disease model mouse (Example 9); assay type: in vivo; details: Tg2576 mouse (24-month old) vs normal mouse; tail vein; 1 hour after administration
Experimental: To confirm whether the compound 2 has the performance capable of visualizing amyloid plaques in the brain, an image was taken by ex vivo autoradiography in a Tg2576 mouse as one of Alzheimer's disease model animals.
[^18F]D3 (55.5 MBq (1.5 mCi)/200 μL) was administered to a Tg2576 mouse (24-month old, female) and a normal mouse (24-month old, female) through their tail vein. Each mouse was sacrificed 1 hour after administration, and the brain was removed, embedded in a carboxymethylcellulose solution, and frozen in a dry ice-hexane bath, followed by preparing frozen sections having a thickness of 30 μm using a cryostat (Leica). The resultant brain tissue sections were each placed on an imaging plate (Model BAS-SR, from Fujifilm Corporation) for 30 minutes for exposure, and the respective autoradiographs were obtained using an image analyzer (Bio Imaging Analyzer Model BAS5000, from Fujifilm Corporation). The same sections were each stained with thioflavin S ([…]), washed, and observed under a fluorescent microscope.

[2] = In vivo radioactivity distribution experiment (Example 8); details: ddY mice, tail vein, SD in parenthesis
Experimental: Through the tail vein of ddY mice (male, 5 week-old) was injected each of a 10 volume % ethanol-containing saline solution of [^18F]E3 (45.4 kBq, 100 μL), a 10 volume % ethanol-containing saline solution of [^18F]D3 (38.2 kBq, 100 μL), a 10 volume % ethanol-containing saline solution of [^18F]E1 (45.1 kBq, 100 μL), and a 10 volume % ethanol-containing saline solution of [^18F]E2 (40.6 kBq, 100 μL). Five mice were used for each group and sacrificed 2, 10, 30, and 60 minutes after administration to remove major organs. The blood and organs were weighed and further measured for radioactivity using a γ counter. The amount of radioactivity per unit mass was measured in each organ to evaluate radioactivity distribution.

amyloid plaques = assay: Autoradiography using postmortem brain section of patient with Alzheimer's disease (Example 7); assay type: binding, human (Alzheimer's disease patient); details: brain section (temporal lobe) of Alzheimer's disease patient; 0.37 MBq/100 μL, 1 hour
Experimental: A postmortem autopsy brain section (temporal lobe) of a patient with Alzheimer's disease was incubated together with each of [^18F]E3, [^18F]D3, [^18F]E1, and [^18F]E2 (0.37 MBq/100 μL each) at room temperature for 1 hour. The resultant was washed with a 50 volume % ethanol aqueous solution (2 minutes×2) and water (2 minutes×2), and after drying, the section was contacted with BAS imaging plate (from Fujifilm Corporation) for 1.5 hours. The image of autoradiography was obtained using BAS5000 scanner system (from Fujifilm Corporation).
A section adjacent to the brain section used was immunostained in the following manner.
First, a paraffin-embedded brain section of the Alzheimer's disease patient (temporal lobe, 6 μm in thickness) was incubated with xylene (15 minutes×2), ethanol (1 minute×2), a 90 volume % ethanol aqueous solution (1 minute×2), and a 70 volume % ethanol aqueous solution (1 minute×1) in that order for complete deparaffinization, and then washed in water (2.5 minutes×2). Thereafter, the section was subjected to autoclave treatment for 15 minutes in 0.01 mol/L citrate buffer solution (pH 6.0). The resultant was incubated in PBS-Tween20 (5 minutes×2), and a mouse anti-Aβ1-42 primary monoclonal antibody (from Wako Pure Chemical Industries Ltd.) was then added thereto, which was then incubated at room temperature overnight. The resultant was incubated in PBS-Tween20 (2 minutes×3), and a biotin-goat anti-mouse IgG (from Funakoshi Co., Ltd.) was then added thereto, which was then incubated at room temperature for 1 hour. The resultant was incubated in PBS-Tween20 (5 minutes×3), and a streptavidin-peroxidase complex (from Funakoshi Co., Ltd.) was added thereto, which was then incubated at room temperature for 30 minutes. In addition, the resultant was incubated in PBS-Tween20 (2 minutes×3); 3,3′-diaminobenzidine was added thereto, which was then incubated at room temperature for 30 minutes; and after washing with water, the section was observed under a microscope to provide an immunostained image (FIG. 10).

Chain of amyloid plaques (P05067 672-711 limits assumed): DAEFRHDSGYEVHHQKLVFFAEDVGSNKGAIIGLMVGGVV
Chain of amyloid plaques in the brain (P05067 672-711 limits assumed): as above

Q: With “4-(6-(2-[^18F]Fluoroethoxy)quinoxalin-2-yl)-N,N-dimethylaniline [[^18F]D3]” as the substance, how does the “visualization of amyloid plaques in the brain, ex vivo autoradiography” value [1] read?
A: Its value is “could visualize amyloid plaques in the brain”.

Q: What about the “Radioactivity Amount, Blood” value ([2]; 2 min. after) of the same substance?
A: The value was 2.66 (0.50) % injected dose/g.

Q: What about the “Radioactivity Amount, Blood” value ([2]; 10 min. after) of the same substance?
A: The value was 2.29 (0.25) % injected dose/g.

Q: And the “Radioactivity Amount, Blood” value ([2]; 30 min. after)?
A: The value was 2.98 (0.29) % injected dose/g.

Q: What about the “Radioactivity Amount, Blood” value ([2]; 60 min. after) of the same substance?
A: The value was 3.26 (0.37) % injected dose/g.

Q: What about the “Radioactivity Amount, Bone” value ([2]; 2 min. after) of the same substance?
A: Its value is 2.65 (0.61) % injected dose/g.

Q: And the “Radioactivity Amount, Bone” value ([2]; 10 min. after)?
A: Its value is 2.75 (0.36) % injected dose/g.

Q: And the “Radioactivity Amount, Bone” value ([2]; 30 min. after)?
A: Its value is 2.82 (0.78) % injected dose/g.

Q: What about the “Radioactivity Amount, Bone” value ([2]; 60 min. after) of the same substance?
A: Its value is 2.77 (1.27) % injected dose/g.

Q: And the “Radioactivity Amount, Brain” value ([2]; 2 min. after)?
A: Its value is 5.67 (0.48) % injected dose/g.

Q: And the “Radioactivity Amount, Brain” value ([2]; 10 min. after)?
A: Its value is 6.39 (0.51) % injected dose/g.

Q: And the “Radioactivity Amount, Brain” value ([2]; 30 min. after)?
A: The value was 3.73 (0.50) % injected dose/g.

Q: What about the “Radioactivity Amount, Brain” value ([2]; 60 min. after) of the same substance?
A: The value was 2.61 (0.37) % injected dose/g.

Q: What about the “Radioactivity Amount, Heart” value ([2]; 2 min. after) of the same substance?
A: The value was 8.50 (1.40) % injected dose/g.

Q: And the “Radioactivity Amount, Heart” value ([2]; 10 min. after)?
A: The value was 4.19 (0.47) % injected dose/g.

Q: And the “Radioactivity Amount, Heart” value ([2]; 30 min. after)?
A: The value was 3.29 (0.68) % injected dose/g.

Q: What about the “Radioactivity Amount, Heart” value ([2]; 60 min. after) of the same substance?
A: The value was 3.74 (0.72) % injected dose/g.

Q: And the “Radioactivity Amount, Intestine” value ([2]; 2 min. after)?
A: Its value is 2.56 (0.10) % injected dose/g.

Q: What about the “Radioactivity Amount, Intestine” value ([2]; 10 min. after) of the same substance?
A: Its value is 5.27 (0.27) % injected dose/g.

Q: What about the “Radioactivity Amount, Intestine” value ([2]; 30 min. after) of the same substance?
A: The value was 9.82 (1.43) % injected dose/g.

Q: And the “Radioactivity Amount, Intestine” value ([2]; 60 min. after)?
A: The value was 12.3 (0.79) % injected dose/g.

Q: And the “Radioactivity Amount, Kidney” value ([2]; 2 min. after)?
A: Its value is 10.7 (0.96) % injected dose/g.

Q: What about the “Radioactivity Amount, Kidney” value ([2]; 10 min. after) of the same substance?
A: Its value is 6.66 (0.45) % injected dose/g.

Q: And the “Radioactivity Amount, Kidney” value ([2]; 30 min. after)?
A: The value was 4.19 (0.78) % injected dose/g.

Q: And the “Radioactivity Amount, Kidney” value ([2]; 60 min. after)?
A: Its value is 3.30 (0.39) % injected dose/g.

Q: And the “Radioactivity Amount, Liver” value ([2]; 2 min. after)?
A: Its value is 10.3 (1.00) % injected dose/g.

Q: And the “Radioactivity Amount, Liver” value ([2]; 10 min. after)?
A: Its value is 9.83 (0.22) % injected dose/g.

Q: And the “Radioactivity Amount, Liver” value ([2]; 30 min. after)?
A: The value was 6.91 (0.81) % injected dose/g.

Q: What about the “Radioactivity Amount, Liver” value ([2]; 60 min. after) of the same substance?
A: The value was 6.65 (0.90) % injected dose/g.

Q: And the “Radioactivity Amount, Lung” value ([2]; 2 min. after)?
A: The value was 8.94 (1.76) % injected dose/g.

Q: What about the “Radioactivity Amount, Lung” value ([2]; 10 min. after) of the same substance?
A: Its value is 4.59 (1.07) % injected dose/g.

Q: And the “Radioactivity Amount, Lung” value ([2]; 30 min. after)?
A: Its value is 3.51 (0.44) % injected dose/g.

Q: And the “Radioactivity Amount, Lung” value ([2]; 60 min. after)?
A: The value was 3.39 (0.14) % injected dose/g.

Q: What about the “Radioactivity Amount, Pancreas” value ([2]; 2 min. after) of the same substance?
A: Its value is 6.55 (0.63) % injected dose/g.

Q: And the “Radioactivity Amount, Pancreas” value ([2]; 10 min. after)?
A: Its value is 4.74 (0.42) % injected dose/g.

Q: What about the “Radioactivity Amount, Pancreas” value ([2]; 30 min. after) of the same substance?
A: The value was 2.73 (0.50) % injected dose/g.

Q: And the “Radioactivity Amount, Pancreas” value ([2]; 60 min. after)?
A: Its value is 2.74 (0.19) % injected dose/g.

Q: And the “Radioactivity Amount, Spleen” value ([2]; 2 min. after)?
A: The value was 2.86 (0.66) % injected dose/g.

Q: And the “Radioactivity Amount, Spleen” value ([2]; 10 min. after)?
A: The value was 4.09 (0.33) % injected dose/g.

Q: What about the “Radioactivity Amount, Spleen” value ([2]; 30 min. after) of the same substance?
A: The value was 2.66 (0.57) % injected dose/g.

Q: What about the “Radioactivity Amount, Spleen” value ([2]; 60 min. after) of the same substance?
A: Its value is 3.07 (0.68) % injected dose/g.

Q: And the “Radioactivity Amount, Stomach*” value ([2]; 2 min. after)?
A: Its value is 1.09 (0.05) % injected dose per organ.

Q: And the “Radioactivity Amount, Stomach*” value ([2]; 10 min. after)?
A: Its value is 1.64 (0.28) % injected dose per organ.

Q: What about the “Radioactivity Amount, Stomach*” value ([2]; 30 min. after) of the same substance?
A: Its value is 1.98 (0.47) % injected dose per organ.

Q: What about the “Radioactivity Amount, Stomach*” value ([2]; 60 min. after) of the same substance?
A: The value was 2.06 (0.46) % injected dose per organ.

Q: And the “visualization of gray matter / amyloid plaques by autoradiography” value (amyloid plaques)?
A: Its value is “amyloid plaques were visualized”.
